The source of these data is PMC4492731 (Pharmacology Research & Perspectives, 2015).

The format of series [1] is in vivo, human. The settings on record: for PCI-45227 mean AUClast / PCI-45227 mean Cmax / PCI-45227 tmax, median (range): fasted; for concentration at 2 h: rifampin plasma concentration, Study 2, day 11, 2 h after drug intake, rifampin 600 mg q.d.
Assay in series [2]: not given
This is another data set of the same source.

The conditions of series [3]: standard breakfast with GFJ; ref de Vries et al. [2015]; cited from earlier work.
Series [4] deals with Bruton’s tyrosine kinase (BTK). Particulars: reversible binding; ref Parmar et al. [2014]; cited from earlier work.
Setting [5] is: Study 1, ibrutinib 120 mg alone, fasted.
Where [6] appears, read: Study 2, ibrutinib 560 mg + rifampin 600 mg.
Where [7] appears, read: Study 2, ibrutinib 560 mg alone.
The mark [8] stands for this setting: Study 1, ibrutinib 40 mg + ketoconazole 400 mg, fasted.
Where [9] appears, read: Study 1, ibrutinib + ketoconazole vs ibrutinib alone.

Read-outs that look alike come from different tables or passages of the source.

For the compound `C=CC(=O)N1CCC[C@@H](n2nc(-c3ccc(Oc4ccccc4)cc3)c3c(N)ncnc32)C1` [Ibrutinib, reference compound], the total exposure AUC(0-inf) in series [1] (human, plasma, oral, 560 mg) came out at 300 ng·h/mL; the AUC(0-inf) (human, in vivo, 560 mg) stood at 643 ng·h/mL; the AUC(0-inf) in series [2] (human, in vivo, 120 mg) is 71 ng·h/mL. The “AUCs of ibrutinib following i.v. administration with and without GFJ” value (Study 3, nonfasted, i.v. dose of 100 μg 13C6 PCI-32765) is recorded as “the same”. For the same compound, the area under the curve (AUC) (human, in vivo, 560 mg) was determined as 529 ng·h/mL and the area under the curve (AUC) in series [2] (human, in vivo, 120 mg) amounted to 56 ng·h/mL. The “mean DN_AUClast of ibrutinib” value in series [2] (Study 1, ibrutinib 120 mg alone, day 1, fasted) was 71.4 ng·h/mL. Moreover, in series [2] (Study 1, ibrutinib 120 mg alone, day 1, fasted, healthy men), the “mean DN_Cmax of ibrutinib” value is recorded as 11.8 ng/mL. The compound also displayed an AUClast geometric mean in series [2] (setting [5]) of 61 ng·h/mL. In series [3], the “absolute oral bioavailability (F)” value is 15.9%.

Take `Nc1ncnc2c1c(-c1ccc(Oc3ccccc3)cc1)nn2[C@@H]1CCCN(C(=O)C(O)CO)C1` (stereo partly drawn) [PCI-45227]: in series [1] (setting [6]), the “PCI-45227 mean AUClast” value stood at 374 ng·h/mL; the “PCI-45227 mean Cmax” value amounted to 49.9 ng/mL; the “PCI-45227 tmax, median (range)” value came out at 3.00 h. In series [1] (setting [7]), the “PCI-45227 mean AUClast” value came out at 946 ng·h/mL; the “PCI-45227 mean Cmax” value came out at 70.0 ng/mL; the “PCI-45227 tmax, median (range)” value is on record as 2.02 h. In addition, the “metabolite to parent ratio for Cmax” value in series [1] (Study 2, ibrutinib + rifampin) worked out at 20.80. Further, in series [1] (Study 2, ibrutinib alone), the “metabolite to parent ratio for Cmax” value is recorded as 2.09. Further, the “effect of GFJ on tmax of PCI-45227” value (Study 3) is “no effect”. For the same compound, the “dose-normalized PCI-45227 concentrations and AUCs with or without GFJ” value (Study 3, oral ibrutinib) is on record as “comparable”. Under “Study 3, with GFJ”, the Cmax metabolite-to-parent ratio was found to be 0.32. The Cmax metabolite-to-parent ratio (Study 3, without GFJ) amounted to 1.03. Besides, in series [2] (setting [8]), the “PCI-45227 t1/2, mean (SD)” value was determined as 18.00 h and the “PCI-45227 tmax, median (range)” value worked out at 4.00 h. For the same compound, in series [2] (setting [5]), the “PCI-45227 DN_AUClast” value was 304 ng·h/mL; the “PCI-45227 DN_Cmax” value was found to be 29.1 ng/mL; the “PCI-45227 t1/2, mean (SD)” value stood at 11.41 h; the “PCI-45227 tmax, median (range)” value was found to be 2.00 h. Further, the “mean metabolite to parent ratio for Cmax” value in series [2] (Study 1, ibrutinib + ketoconazole) was 0.05. Further, in series [2] (setting [9]), the “decrease of PCI-45227 DN_AUClast with ketoconazole” value is on record as 1.2 times lower and the “decrease of PCI-45227 DN_Cmax with ketoconazole” value came out at 2.6 times lower. In series [2] (Study 1, ibrutinib alone), the “mean metabolite to parent ratio for Cmax” value is given as 2.64. In series [4], the “inhibitory activity toward BTK relative to ibrutinib” value is on record as “approximately 15 times lower”.

For the compound `CC(=O)N1CCN(c2ccc(OCC3COC(Cn4ccnc4)(c4ccc(Cl)cc4Cl)O3)cc2)CC1` (stereo not drawn) [ketoconazole, reference compound], the “ketoconazole plasma concentration, two participants with very low concentrations” value in series [2] (Study 1, day 7, individual values) turned out to be 231 ng/mL.

`CO[C@H]1/C=C/O[C@@]2(C)Oc3c(C)c(O)c4c(O)c(c(/C=N/N5CCN(C)CC5)c(O)c4c3C2=O)NC(=O)/C(C)=C\C=C\[C@H](C)[C@H](O)[C@@H](C)[C@@H](O)[C@@H](C)[C@H](OC(C)=O)[C@@H]1C` [rifampin, reference compound]: the concentration at 2 h in series [1] (human, plasma, oral, mean ± SD) was 9250 ± 4960 ng/mL; in series [1] (human, plasma, oral, range), 289 to 18400 ng/mL.
